According to patent US9809560B2, “Ligands and methods for labeling biomolecules in vivo” (Albert Einstein College of Medicine, Inc., priority 2010, dated 2017):

What was measured:
[1] = Fluorogenic kinetic assay of CuAAC of 3-azido-7-hydroxy-coumarin and propargyl alcohol; conditions: 75 μM CuSO4 premixed with ligand, [ligand]:[copper] 2:1 to 6:1; within 15 min
Method: FIG. 1A-1C. Copper(I)-catalyzed azide-alkyne cycloaddition (CuAAC) is accelerated by Cu(I)-stabilizing ligands. (A) CuAAC of azides and terminal alkynes to form 1,4-disubstituted 1,2,3-triazoles. (B) Structures of CuAAC-accelerating ligands. (C) Conversion-time profiles of CuAAC in the presence/absence of accelerating ligands. Reaction conditions: propargyl alcohol (50 μM), 3-azido-7-hydroxy-coumarin (100 μM), CuSO4 (75 μM), 0.1 M potassium phosphate buffer (pH 7.0)/DMSO 95:5, sodium ascorbate ([…]), rt. Error bars represent the standard deviation of three replicate experiments.
Protocol for Kinetic Measurement of CuAAC of 3-azido-7-hydroxy-coumarin and Propargyl Alcohol […]
Procedure for 200 μL reactions: In a 96-well fluorescence plate, add the reagents in the following order: (1) 40 μL of 500 mM phosphate buffer pH 7.0; (2) 1.0 μL 10 mM propargyl alcohol; (3) 10 μL of DMSO; (4) 6 μL of premixed CuSO4 and ligand ([Cu]=2.5 mM); (5) 1.0 μL 20 mM coumarin-N3; (6) 20 μL of 25 mM sodium ascorbate; (7) Read fluorescence (λex=404 nm, λem=477 nm, RFU) on the Synergy plate reader.

zebrafish embryos = assay: Imaging of fucosylated glycans in zebrafish embryos microinjected with GDP-FucAl; type: in vivo; conditions: among 120 embryos microinjected with nucleotide sugar analogues and treated with click reagents, through four days post click reaction
Method: Zebrafish embryos at the one-cell or two-cell stage were microinjected in the yolk with 1 nL of a 20 mM solution of GDP-FucAl (or GDP-fucose) and either rhodamine-dextran (5% w/v) or phenol red (0.1% w/v) in 0.2 M KCl as a tracer. The embryos were allowed to develop to 5 hpf, at which point they were manually dechorionated. The dechorionated embryos were cultured in E3 embryo medium at 28° C. for an additional 3 h before transferring to 1% agarose-coated 96-well plates containing 92 μL embryo medium using a fire-polished wide-bore Pasteur pipette. Alexa Fluor-488 azide (100 μM from a 1.75 mM stock in H2O) was added to each well, followed by BTTES-CuSO4 or BTTA-CuSO4 6:1 complex ([Cu]=50 μM from 2.5 mM stock). […] After mounting on a slide or 50 mm glass bottom dishes (Matek) in 1.5-3% methyl cellulose and E3 medium, the embryos were ready for imaging by confocal microscopy.
To image fucosylated glycans in zebrafish embryos, GDP-FucAl was synthesized chemoenzymatically and microinjected embryos at the one-cell stage with 20 pmol of GDP-FucAl (FIG. 4B). […] Robust labeling of the treated embryos was achieved within 1-3 min reaction (FIG. 4C), and only background fluorescence was detected for control embryos microinjected with GDP-fucose (FIG. 10). […]

## CC(C)(C)n1cc(CN(Cc2cn(CCOS(=O)(=O)O)nn2)Cc2cn(C(C)(C)C)nn2)nn1 [BTTES]
[1]
  cycloaddition product yield: > 50%
Zebrafish embryos
  embryos with minor developmental defects: less than twelve embryos exhibited minor developmental defects
